Two compounds from ChEMBL document CHEMBL5257097, “An Isomer of Galidesivir That Potently Inhibits Influenza Viruses and Members of the Bunyavirales Order” (ACS Med Chem Lett, 2023) can be followed below.

Series [1] in a line: Cytotoxicity against African green monkey Vero E6 cells infected with Heartland virus assessed as reduction in cell viability. The class given is toxicity, cell-based, Vero C1008. The conditions noted are these: chlorocebus sabaeus.
Series [2] is described as follows: Cytotoxicity against African green monkey Vero E6 cells infected with Oropouche virus assessed as reduction in cell viability by neutral red dye based analysis. The class given is toxicity, Vero C1008. To be noted: chlorocebus sabaeus.
The test system of series [3] is Rift Valley fever virus. Briefly: Antiviral activity against Rift Valley fever virus infected in African green monkey Vero 76 cells assessed as reduction in viral yield measured for 3 days. The class given is functional. The conditions noted are these: Vero 76, 72 h, time 3 day.
Series [4] can be described thus: Selectivity index, ratio of CC50 for cytotoxicity against dog MDCK cells infected with Influenza B virus assessed as reduction in cell viability by visual analysis to EC50 for antiviral activity against Influenza B virus infected in dog MDCK cells assessed as inhibition of viral replication by visual analysis. The series is classed as toxicity, cell-based. To be noted: read-out: Ratio CC50/EC50.

The test system of series [5] is Influenza A virus. Kind of series: Antiviral activity against Influenza A virus H7N9 infected in dog MDCK cells assessed as inhibition of viral replication measured after 15 to 30 mins by visual analysis. The class given is functional, organism-based.
Series [6] deals with Orthohantavirus maporalense. Kind of series: Antiviral activity against Maporal virus infected in African green monkey Vero E6 cells assessed as reduction in viral yield measured for 3 days. The class given is functional. The conditions noted are these: Vero C1008, 72 h, time 3 day.
Series [7] is described as follows: Cytotoxicity against dog MDCK cells infected with Influenza A virus H7N9 assessed as reduction in cell viability by neutral red dye based analysis. The series is classed as toxicity, Canis lupus familiaris.
Series [8] is described as follows: Selectivity index, ratio of CC50 for cytotoxicity against dog MDCK cells infected with Influenza B virus assessed as reduction in cell viability by visual analysis to EC90 for antiviral activity against Influenza B virus infected in dog MDCK cells assessed as reduction in viral yield by visual analysis. The class given is toxicity, cell-based.
Series [9] can be described thus: Selectivity index, ratio of CC50 for cytotoxicity against African green monkey Vero 76 cells infected with Punta Toro virus assessed as reduction in cell viability by neutral red dye based analysis to EC50 for antiviral activity against Punta Toro virus infected in African green monkey Vero 76 cells assessed as reduction in viral replication by neutral red dye based analysis. The series is classed as toxicity. To be noted: read-out: Ratio CC50/EC50.

Series [10] can be described thus: Cytotoxicity against dog MDCK cells infected with Influenza B virus assessed as reduction in cell viability by visual analysis. The class given is toxicity, cell-based, Canis lupus familiaris.
Series [11] can be described thus: Toxicity in BALB/c mouse infected with A/Ca/04/09 (H1N1) assessed as animal survival at 10 to 300 mg/kg, ip administered twice a day for 5 days. The series is classed as organism-based. The conditions noted are these: in vivo, 120 h, dose 10-300 mg/kg, time 5 day.
Series [12] can be described thus: Selectivity index, ratio of CC50 for cytotoxicity against African green monkey Vero cells infected with JUNV assessed as reduction in cell viability by neutral red dye based analysis to EC50 for antiviral activity against JUNV infected in African green monkey Vero cells assessed as reduction in viral replication by neutral red dye based analysis. The series is classed as toxicity. The conditions noted are these: read-out: Ratio CC50/EC50.

Series [13] can be described thus: Cytotoxicity against African green monkey Vero cells infected with Tacaribe virus assessed as reduction in cell viability by neutral red dye based analysis. The series is classed as toxicity. The conditions noted are these: chlorocebus sabaeus.
Series [14] in a line: Cytotoxicity against African green monkey Vero 76 cells infected with Punta Toro virus assessed as reduction in cell viability by visual analysis. The class given is toxicity, cell-based. The conditions noted are these: chlorocebus sabaeus.
Series [15] in a line: Cytotoxicity against African green monkey Vero E6 cells infected with Lymphocytic choriomeningitis virus assessed as reduction in cell viability. The class given is toxicity, cell-based, Vero C1008. To be noted: chlorocebus sabaeus.
The nature of series [16]: Cytotoxicity against African green monkey Vero cells infected with Tacaribe virus assessed as reduction in cell viability by visual analysis. The class given is toxicity, cell-based. To be noted: chlorocebus sabaeus.
A short description of series [17]: Selectivity index, ratio of CC50 for cytotoxicity against African green monkey Vero E6 cells infected with Maporal virus assessed as reduction in cell viability to EC90 for antiviral activity against Maporal virus infected in African green monkey Vero E6 cells assessed as reduction in viral yield. The class given is toxicity, cell-based, Vero C1008.
The subject of series [18] is Tacaribe virus. Kind of series: Antiviral activity against Tacaribe virus infected in African green monkey Vero cells assessed as inhibition of viral replication by neutral red dye based analysis. The series is classed as functional, organism-based. To be noted: Mammarenavirus tacaribeense.
A short description of series [19]: Toxicity in BALB/c mouse infected with influenza A/Ca/04/09 (H1N1) assessed as mortality at 30 mg/kg, ip measured every day for 6 days. The series is classed as organism-based. To be noted: in vivo, time 6 day, read-out: Activity.
Series [20] is described as follows: Selectivity index, ratio of CC50 for cytotoxicity against dog MDCK cells infected with Influenza A virus H1N1 assessed as reduction in cell viability by visual analysis to EC90 for antiviral activity against Influenza A virus H1N1 infected in dog MDCK cells assessed as reduction in viral yield by visual analysis. The class given is toxicity, cell-based.
Series [21] in a line: Toxicity in BALB/c mouse infected with influenza A/Ca/04/09 (H1N1) assessed as mortality at 100 mg/kg, ip measured every day for 6 days. The series is classed as organism-based. The conditions noted are these: in vivo, time 6 day, read-out: Activity.
Series [22] can be described thus: Cytotoxicity against African green monkey Vero E6 cells infected with Oropouche virus assessed as reduction in cell viability by visual analysis. The class given is toxicity, cell-based, Vero C1008. To be noted: chlorocebus sabaeus.
The nature of series [23]: Selectivity index, ratio of CC50 for cytotoxicity against dog MDCK cells infected with Influenza A virus H7N9 assessed as reduction in cell viability by visual analysis to EC50 for antiviral activity against Influenza A virus H7N9 infected in dog MDCK cells assessed as inhibition of viral replication by visual analysis. The class given is toxicity, cell-based. To be noted: read-out: Ratio CC50/EC50.

Series [24] deals with Influenza A virus. Kind of series: Antiviral activity against Influenza A virus H3N2 infected in dog MDCK cells assessed as inhibition of viral replication measured after 15 to 30 mins by visual analysis. The class given is functional, organism-based.
The subject of series [25] is Punta Toro virus. Briefly: Antiviral activity against Punta Toro virus infected in African green monkey Vero 76 cells assessed as inhibition of viral replication by visual analysis. The series is classed as functional, organism-based.
The nature of series [26]: Cytotoxicity against African green monkey Vero E6 cells infected with JUNV assessed as reduction in cell viability by visual analysis. The series is classed as toxicity, cell-based, Vero C1008. The conditions noted are these: chlorocebus sabaeus.
A short description of series [27]: Cytotoxicity against African green monkey Vero cells infected with DENV-2 assessed as reduction in cell viability by visual assay. The series is classed as toxicity, cell-based. The conditions noted are these: chlorocebus sabaeus.
Series [28] in a line: Cytotoxicity against vervet monkey MA-104 cells infected with MERS-CoV assessed as reduction in cell viability by visual assay. The series is classed as toxicity, cell-based. The conditions noted are these: cercopithecus pygerythrus.
Series [29] deals with dengue virus type 2. Kind of series: Antiviral activity against DENV-2 infected in African green monkey Vero cells assessed as reduction in virus-induced cytopathic effect measured after 15 to 30 mins by visual analysis. The class given is functional, organism-based. (Cytopathic effects are the visible damage that an infection or toxin causes in cultured cells.)
Series [30] can be described thus: Cytotoxicity against African green monkey Vero cells infected with DENV-2 assessed as reduction in cell viability by neutral red dye based assay. The class given is toxicity. To be noted: chlorocebus sabaeus.
The nature of series [31]: Selectivity index, ratio of CC50 for cytotoxicity against vervet monkey MA-104 cells infected with MERS-CoV assessed as reduction in cell viability by visual analysis to EC50 for antiviral activity against MERS-CoV infected in vervet monkey MA-104 cells assessed as reduction in virus-induced cytopathic effect by visual analysis. The series is classed as toxicity, cell-based. The conditions noted are these: read-out: Ratio CC50/EC50.

Series [32] can be described thus: Selectivity index, ratio of CC50 for cytotoxicity against vervet monkey MA-104 cells infected with MERS-CoV assessed as reduction in cell viability by neutral red dye based analysis to EC50 for antiviral activity against MERS-CoV infected in vervet monkey MA-104 cells assessed as reduction in virus-induced cytopathic effect by neutral red dye based analysis. The class given is toxicity. To be noted: read-out: Ratio CC50/EC50.

Series [33] has as its system Middle East respiratory syndrome-related coronavirus. Kind of series: Antiviral activity against MERS-CoV infected in vervet monkey MA-104 cells assessed as reduction in virus-induced cytopathic effect measured after 15 to 30 mins by visual analysis. The series is classed as functional, organism-based. The conditions noted are these: MA104.
The nature of series [34]: Cytotoxicity against vervet monkey MA-104 cells infected with MERS-CoV assessed as reduction in cell viability by neutral red dye based assay. The class given is toxicity. To be noted: cercopithecus pygerythrus.

As for `Nc1ncnn2c([C@@H]3N[C@H](CO)[C@@H](O)[C@H]3O)ccc12`, the CC50 in series [1] was determined as 13 µM; in [2], 15 µM; in series [7] it was 30 µM; in series [10], 12 µM; in [13], 6.6 µM; in series [14], 13 µM. In addition, the CC50 in series [15] was found to be 12 µM; in [16] it was 12 µM; in [22] it was 24 µM; in series [26], 12 µM. The EC90 in series [3] was determined as 0.097 µM; in series [6] it was 0.86 µM. Also, the selectivity ratio in series [4] came to 38; in series [8], 50; in series [9] it was 37; in series [12] it was 34; in [17] it was 15; in series [20] it was 240. Moreover, in series [23], the selectivity ratio was 76. Also, the EC50 in series [5] amounted to 0.42 µM; in series [18], 0.33 µM; in [24], 0.32 µM; in [25], 0.32 µM. For the same compound, the Activity result in [11] is reported as “Non-Toxic”. For the same compound, the figures for the mortality at 144 h in series [19] and in series [21] were 15% and 72%, respectively.

Consider `Nc1ncnc2c([C@@H]3N[C@H](CO)[C@@H](O)[C@H]3O)c[nH]c12` [GALIDESIVIR], for which the cytotoxic concentration (CC50) in series [27], in [28], in series [30] and in series [34] was more than 100 µM each time. Moreover, the EC50 came out at 4.2 µM in series [29] and 32 µM in series [33]. For the same compound, the selectivity ratio in series [31] is more than 2.8; in series [32], more than 3.1.

For orientation: CC50 means the concentration giving 50% cytotoxicity. As a reminder, the EC90 is the concentration needed for an effect of 90%. As a reminder, the EC50 is the concentration at which the effect is half-maximal.
